Assay results from US9745261B2, “Inhibitors of the MITF molecular pathway” (THE GENERAL HOSPITAL CORPORATION, priority 2013, dated 2017).

How the values were obtained:
TRPM-1 promoter = assay: SK-MEL-5 TRPM-1 luciferase reporter (TRPM-1 promoter activity assay); type: cell-based; details: Homo sapiens; SK-MEL-5 TRPM-1:luc cells, 24 hours, SteadyGlo; read-out: Target Potency IC50 (μM) TRPM1
Procedure: The TRPM1 luciferase promoter construct was transfected into the SK-MEL-5 melanoma cell line and a stable cell line was generated. This promoter is exquisitely sensitive to MITF over-expression and suppression and contains three canonical E-box motifs within the cloned promoter fragment (17). On day 0, cells were plated at 2,000 cells per well into white, opaque 384 well plates in phenol red-free media. On day 1, cells were treated with compounds or positive control for 24 hours. On day 2, 20 uL of SteadyGlo (Promega) was added per well and luminescence signal was determined with the Perkin-Elmer EnVision plate reader. Primary HTS data were analyzed in Genedata Screener Assay Analyzer. All values were normalized against DMSO treated samples and the positive control (18 μM parthenolide, CID 6473881). For the HTS, the average of two replicates was used to rank order activity and to choose compounds for retests. For dose studies, percent (%) activity was determined for each concentration and the concentration response curves (CRCs) were generated with Genedata Screener's Condoseo.
SK-MEL-5/TRPM1Luc cells were maintained in DMEM (10% FBS, 1% Pen-Strep-Glutamine, 250 ug/mL Hygromycin). […]
Day 3 • 5. […] Read on the Perkin-Elmer EnVision plate reader with ultra-sensitive luminescence (US LUM) settings for 0.5 sec per well SK-MEL-5 Cytotoxicity Assay (2084-02)

Dopamine D4.2 = molecular target: T1, Dopamine D4.2 (Homo sapiens, UniProt P21917, DEL265-296); assay: Radioligand binding, Dopamine D4.2
T1 construct: Eurofins Panlabs, Inc. (contract assay)
T1 sequence (P21917 with tags, fused parts or gaps DEL265-296): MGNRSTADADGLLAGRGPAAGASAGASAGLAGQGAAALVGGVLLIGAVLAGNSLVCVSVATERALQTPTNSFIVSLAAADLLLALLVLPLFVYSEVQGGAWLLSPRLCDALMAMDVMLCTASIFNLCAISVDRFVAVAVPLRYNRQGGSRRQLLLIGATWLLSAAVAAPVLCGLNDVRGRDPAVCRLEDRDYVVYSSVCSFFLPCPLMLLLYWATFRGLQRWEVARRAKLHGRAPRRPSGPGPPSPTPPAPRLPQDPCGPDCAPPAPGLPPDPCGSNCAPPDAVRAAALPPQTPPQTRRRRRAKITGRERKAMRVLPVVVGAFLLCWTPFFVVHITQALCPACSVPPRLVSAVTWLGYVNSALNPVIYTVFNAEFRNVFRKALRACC

[1] = molecular target: T2, Epidermal Growth Factor (EGF) (Homo sapiens, UniProt P00533); assay: Radioligand binding, Epidermal Growth Factor (EGF)
T2 construct: Eurofins Panlabs, Inc. (contract assay)
T2 sequence (P00533 25-1210): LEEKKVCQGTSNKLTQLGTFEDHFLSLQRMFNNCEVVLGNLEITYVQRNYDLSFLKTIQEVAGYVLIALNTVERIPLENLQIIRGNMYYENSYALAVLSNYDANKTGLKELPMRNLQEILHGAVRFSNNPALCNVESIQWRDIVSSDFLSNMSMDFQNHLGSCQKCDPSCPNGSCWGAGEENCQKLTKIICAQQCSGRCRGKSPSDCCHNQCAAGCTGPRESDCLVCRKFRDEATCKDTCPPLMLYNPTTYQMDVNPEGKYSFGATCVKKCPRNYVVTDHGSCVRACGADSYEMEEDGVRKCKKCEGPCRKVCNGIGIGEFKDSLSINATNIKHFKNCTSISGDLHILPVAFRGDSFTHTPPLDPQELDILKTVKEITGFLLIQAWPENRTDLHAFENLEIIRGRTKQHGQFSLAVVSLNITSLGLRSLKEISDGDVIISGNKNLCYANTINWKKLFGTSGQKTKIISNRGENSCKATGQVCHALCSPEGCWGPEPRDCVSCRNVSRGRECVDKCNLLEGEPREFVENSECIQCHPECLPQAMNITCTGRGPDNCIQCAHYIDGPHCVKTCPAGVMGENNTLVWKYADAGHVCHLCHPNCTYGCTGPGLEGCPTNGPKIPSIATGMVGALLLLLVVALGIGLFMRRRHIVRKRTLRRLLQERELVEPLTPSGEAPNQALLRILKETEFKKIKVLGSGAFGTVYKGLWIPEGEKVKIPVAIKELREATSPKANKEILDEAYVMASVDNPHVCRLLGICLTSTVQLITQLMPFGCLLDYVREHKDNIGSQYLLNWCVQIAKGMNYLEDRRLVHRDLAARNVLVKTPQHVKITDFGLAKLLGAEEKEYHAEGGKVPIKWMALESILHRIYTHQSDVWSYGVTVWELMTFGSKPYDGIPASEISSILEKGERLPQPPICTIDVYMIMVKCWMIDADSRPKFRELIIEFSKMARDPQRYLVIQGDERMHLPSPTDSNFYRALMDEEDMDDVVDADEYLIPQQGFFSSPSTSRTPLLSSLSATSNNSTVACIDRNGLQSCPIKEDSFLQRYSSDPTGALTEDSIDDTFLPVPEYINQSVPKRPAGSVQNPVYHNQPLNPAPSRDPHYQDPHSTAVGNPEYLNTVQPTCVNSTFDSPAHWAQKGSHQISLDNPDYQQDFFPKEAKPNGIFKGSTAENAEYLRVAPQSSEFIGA

[2] = molecular target: T3, Serotonin (5-Hydroxytryptamine) 5-HT3 (Homo sapiens, UniProt P46098); assay: Radioligand binding, Serotonin (5-Hydroxytryptamine) 5-HT3
T3 construct: Eurofins Panlabs
T3 sequence (P46098 24-478): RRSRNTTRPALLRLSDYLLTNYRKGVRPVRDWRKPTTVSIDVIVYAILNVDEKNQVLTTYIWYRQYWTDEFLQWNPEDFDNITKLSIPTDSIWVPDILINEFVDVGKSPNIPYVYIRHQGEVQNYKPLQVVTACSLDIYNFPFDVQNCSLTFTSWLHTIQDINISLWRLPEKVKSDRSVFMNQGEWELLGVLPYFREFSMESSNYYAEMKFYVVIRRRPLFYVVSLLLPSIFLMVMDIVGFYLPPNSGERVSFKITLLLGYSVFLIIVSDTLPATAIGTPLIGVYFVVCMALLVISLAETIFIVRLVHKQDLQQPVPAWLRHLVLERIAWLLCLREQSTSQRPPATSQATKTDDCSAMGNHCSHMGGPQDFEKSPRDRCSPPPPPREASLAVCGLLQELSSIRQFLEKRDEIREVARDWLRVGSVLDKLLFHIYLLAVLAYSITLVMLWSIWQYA

Interleukin IL-1 = molecular target: T4, Interleukin IL-1 (Mus musculus, UniProt P13504); assay: Radioligand binding, Interleukin IL-1
T4 construct: Eurofins Panlabs, Inc
T4 sequence (P13504 20-576): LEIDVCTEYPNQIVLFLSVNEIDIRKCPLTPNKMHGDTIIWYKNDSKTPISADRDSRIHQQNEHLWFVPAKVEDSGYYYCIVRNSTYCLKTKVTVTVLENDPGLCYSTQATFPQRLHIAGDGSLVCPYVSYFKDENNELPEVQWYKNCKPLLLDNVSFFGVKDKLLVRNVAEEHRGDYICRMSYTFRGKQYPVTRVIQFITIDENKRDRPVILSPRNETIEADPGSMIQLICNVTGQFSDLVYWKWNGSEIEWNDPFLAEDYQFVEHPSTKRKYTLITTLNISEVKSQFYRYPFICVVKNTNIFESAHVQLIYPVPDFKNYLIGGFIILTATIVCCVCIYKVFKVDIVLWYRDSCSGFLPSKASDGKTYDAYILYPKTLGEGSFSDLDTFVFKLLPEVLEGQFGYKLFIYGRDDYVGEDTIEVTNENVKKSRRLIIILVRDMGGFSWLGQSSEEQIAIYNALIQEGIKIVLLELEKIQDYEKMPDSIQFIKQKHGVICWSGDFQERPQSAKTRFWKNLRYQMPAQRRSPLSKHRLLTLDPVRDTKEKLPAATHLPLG

SMILES | IC50 (TRPM-1 promoter) [µM] | inhibition at 10 µM (Dopamine D4.2) [%] | inhibition at 10 µM [1] [%] | inhibition at 10 µM [2] [%] | inhibition at 10 µM (Interleukin IL-1) [%]
NS(=O)(=O)c1ccc(NC2=CC(=O)c3ccccc3C2=O)cc1 [4-((1,4-dioxo-1,4-dihydronaphthalen-2-yl)amino)benzenesulfonamide] | 1.2 | – | – | – | –
NS(=O)(=O)c1ccc(NC2=CC(=O)c3ccccc3C2=O)cc1 [Example 1, 4-((1,4-Dioxo-1,4-dihydronaphthalen-2-yl)amino)benzenesulfonamide] | – | 4 | 11 | 5 | 6
